According to paper PMC10752118 (Therapeutic Advances in Medical Oncology, 2023):
One block for each molecule: values may come before it.

Legend:
[1] = system: treatment refractory HER2 over-expressing breast cancer; settings: in combination with weekly trastuzumab and paclitaxel, nine patients; cited from earlier work
[2] = prior single-agent study; cited from earlier work
[3] = cited from earlier work
[4] = Plasma PK, noncompartmental analysis; format: in vivo, human; settings: for observed clearance (CL), dose dependence: 1 h IV infusion
HSP90 = settings: read-out: dissociation constant (Kd); cited from earlier work
[5] = system: P-glycoprotein (P-gp) multidrug transporter; settings: cited from earlier work
[6] = system: patients with advanced TNBC; assay: Phase Ib 3 + 3 dose escalation: DLT assessment, MTD and RP2D; format: in vivo, human
[7] = system: uridine diphosphate-glucoronosyltransferases; settings: cited from earlier work
[8] = Day 7 (no paclitaxel), DL1, onalespib 120 mg/m^2 IV, geometric mean ± SD
[9] = Day 7 (no paclitaxel), DL2, onalespib 150 mg/m^2 IV, geometric mean ± SD
[10] = Day 7 (no paclitaxel), DL3, onalespib 200 mg/m^2 IV, geometric mean ± SD
[11] = Day 7 (no paclitaxel), DL4, onalespib 260 mg/m^2 IV, geometric mean ± SD
[12] = Day 8 (with 80 mg/m^2 paclitaxel), DL1, onalespib 120 mg/m^2 IV, geometric mean ± SD
[13] = Day 8 (with 80 mg/m^2 paclitaxel), DL2, onalespib 150 mg/m^2 IV, geometric mean ± SD
[14] = Day 8 (with 80 mg/m^2 paclitaxel), DL3, onalespib 200 mg/m^2 IV, geometric mean ± SD
[15] = Day 8 (with 80 mg/m^2 paclitaxel), DL4, onalespib 260 mg/m^2 IV, geometric mean ± SD
[16] = Day 1 (no onalespib), 80 mg/m^2 paclitaxel IV, DL1, geometric mean ± SD
[17] = Day 1 (no onalespib), 80 mg/m^2 paclitaxel IV, DL2, geometric mean ± SD
[18] = Day 1 (no onalespib), 80 mg/m^2 paclitaxel IV, DL3, geometric mean ± SD
[19] = Day 1 (no onalespib), 80 mg/m^2 paclitaxel IV, DL4, geometric mean ± SD

Structure (SMILES): CC(C)c1cc(-c2n[nH]c(=O)n2-c2ccc3c(ccn3C)c2)c(O)cc1O [ganetespib]
partial response [1]: 22%
stable disease [1]: 56%

Structure (SMILES): CC(C)c1cc(C(=O)N2Cc3ccc(CN4CCN(C)CC4)cc3C2)c(O)cc1O [onalespib, (2,4-dihydroxy-5-isopropylphenyl)-[5-(4-methylpiperazin-1-ylmethyl)-1,3-dihydroisoindol-2-yl]methanone]
maximum tolerated dose [2]: 260 mg/m^2
water solubility [3]: High water solubility
exposure (AUCinf and Cmax), dose proportionality ([4]; 120 to 260 mg/m^2): approximately dose-proportional
observed clearance (CL), dose dependence [4]: independent of dose
CL [4, 8]: 42.6 ± 4.99 L/h/m^2
Vz [4, 8]: 344 ± 134 L/m^2
CL [4, 9]: 51.1 ± 4.37 L/h/m^2
Vz [4, 9]: 443 ± 23.2 L/m^2
CL [4, 10]: 48.4 ± 29.2 L/h/m^2
Vz [4, 10]: 522 ± 273 L/m^2
CL [4, 11]: 41.6 ± 10.0 L/h/m^2
Vz [4, 11]: 427 ± 102 L/m^2
CL [4, 12]: 47.9 ± 2.03 L/h/m^2
Vz [4, 12]: 730 ± 121 L/m^2
CL [4, 13]: 64.3 ± 21.0 L/h/m^2
Vz [4, 13]: 801 ± 263 L/m^2
CL [4, 14]: 51.4 ± 14.8 L/h/m^2
Vz [4, 14]: 717 ± 282 L/m^2
CL [4, 15]: 45.2 ± 13.4 L/h/m^2
Vz [4, 15]: 598 ± 208 L/m^2
effect of combination with paclitaxel on overall exposure (AUCinf and Cmax) ([4]; cycle 1 day –7 versus day 8): no apparent changes in overall exposure
AUC(0-inf) ([4]; human, plasma, intravenous, AUCinf, range, single agent, cycle 1, day –7, all DLs (120 to 260 mg/m^2)): 4.3 to 22.7 µM·h
half-life ([4]; human, plasma, intravenous, mean t1/2, range across DLs, as a single agent only): 6.04 to 7.32 h
AUC(0-inf) ([4]; human, plasma, iv, 120 mg/m2, AUCinf, Day 7 (no paclitaxel), DL1, onalespib 120 mg/m^2 IV, geometric mean ± SD): 6.72 ± 0.688 µM·h
Cmax ([4]; human, plasma, iv, 120 mg/m2, Cmax, Day 7 (no paclitaxel), DL1, onalespib 120 mg/m^2 IV, geometric mean ± SD): 2.8 ± 0.844 µM
half-life ([4]; human, plasma, iv, 120 mg/m2, t1/2, Day 7 (no paclitaxel), DL1, onalespib 120 mg/m^2 IV, median (range)): 7.23 h
AUC(0-inf) ([4]; human, plasma, iv, 200 mg/m2, AUCinf, Day 7 (no paclitaxel), DL3, onalespib 200 mg/m^2 IV, geometric mean ± SD): 10 ± 4.35 µM·h
Cmax ([4]; human, plasma, iv, 200 mg/m2, Cmax, Day 7 (no paclitaxel), DL3, onalespib 200 mg/m^2 IV, geometric mean ± SD): 3.21 ± 2.56 µM
half-life ([4]; human, plasma, iv, 200 mg/m2, t1/2, Day 7 (no paclitaxel), DL3, onalespib 200 mg/m^2 IV, median (range)): 7.32 h
AUC(0-inf) ([4]; human, plasma, iv, 260 mg/m2, AUCinf, Day 7 (no paclitaxel), DL4, onalespib 260 mg/m^2 IV, geometric mean ± SD): 15.2 ± 3.84 µM·h
Cmax ([4]; human, plasma, iv, 260 mg/m2, Cmax, Day 7 (no paclitaxel), DL4, onalespib 260 mg/m^2 IV, geometric mean ± SD): 5.36 ± 2.8 µM
half-life ([4]; human, plasma, iv, 260 mg/m2, t1/2, Day 7 (no paclitaxel), DL4, onalespib 260 mg/m^2 IV, median (range)): 6.83 h
AUC(0-inf) ([4]; human, plasma, iv, AUCinf, Day 8 (with 80 mg/m^2 paclitaxel), DL1, onalespib 120 mg/m^2 IV, geometric mean ± SD): 6.1 ± 0.244 µM·h
AUC(0-inf) ([4]; human, plasma, iv, AUCinf, Day 8 (with 80 mg/m^2 paclitaxel), DL2, onalespib 150 mg/m^2 IV, geometric mean ± SD): 5.64 ± 2.32 µM·h
AUC(0-inf) ([4]; human, plasma, iv, AUCinf, Day 8 (with 80 mg/m^2 paclitaxel), DL3, onalespib 200 mg/m^2 IV, geometric mean ± SD): 9.46 ± 2.24 µM·h
AUC(0-inf) ([4]; human, plasma, iv, AUCinf, Day 8 (with 80 mg/m^2 paclitaxel), DL4, onalespib 260 mg/m^2 IV, geometric mean ± SD): 14 ± 4.66 µM·h
Cmax ([4]; human, plasma, iv, Cmax, Day 8 (with 80 mg/m^2 paclitaxel), DL1, onalespib 120 mg/m^2 IV, geometric mean ± SD): 2.74 ± 0.676 µM
Cmax ([4]; human, plasma, iv, Cmax, Day 8 (with 80 mg/m^2 paclitaxel), DL2, onalespib 150 mg/m^2 IV, geometric mean ± SD): 2.41 ± 1.03 µM
Cmax ([4]; human, plasma, iv, Cmax, Day 8 (with 80 mg/m^2 paclitaxel), DL3, onalespib 200 mg/m^2 IV, geometric mean ± SD): 4.64 ± 2.64 µM
Cmax ([4]; human, plasma, iv, Cmax, Day 8 (with 80 mg/m^2 paclitaxel), DL4, onalespib 260 mg/m^2 IV, geometric mean ± SD): 5.53 ± 4.5 µM
half-life ([4]; human, plasma, iv, t1/2, Day 8 (with 80 mg/m^2 paclitaxel), DL1, onalespib 120 mg/m^2 IV, median (range)): 10.5 h
half-life ([4]; human, plasma, iv, t1/2, Day 8 (with 80 mg/m^2 paclitaxel), DL2, onalespib 150 mg/m^2 IV, median (range)): 8.55 h
half-life ([4]; human, plasma, iv, t1/2, Day 8 (with 80 mg/m^2 paclitaxel), DL3, onalespib 200 mg/m^2 IV, median (range)): 9.62 h
half-life ([4]; human, plasma, iv, t1/2, Day 8 (with 80 mg/m^2 paclitaxel), DL4, onalespib 260 mg/m^2 IV, median (range)): 9.11 h
Kd (HSP90): 710 pM
interaction with P-gp [5]: substrate and moderate inhibitor of P-gp
MTD of onalespib ([6]; combined with paclitaxel 80 mg/m^2, IV days 1, 8, 15 of 28-day cycle): 260 mg/m^2
RP2D of onalespib ([6]; given with paclitaxel 80 mg/m^2, IV days 1, 8, 15 of 28-day cycle): 260 mg/m^2
glucuronidation substrate status [7]: substrate for glucuronidation

observed clearance (CL), dose dependence [4]: independent of dose
CL [4, 16]: 12.6 ± 2.63 L/h/m^2
Vz [4, 16]: 279 ± 41.9 L/m^2
AUCinf [4, 17]: 5.59 ± 0.185 µM·h
CL [4, 17]: 16.8 ± 0.535 L/h/m^2
Cmax [4, 17]: 4.17 ± 0.299 µM
Vz [4, 17]: 216 ± 19.3 L/m^2
CL [4, 18]: 15.3 ± 4.77 L/h/m^2
Cmax [4, 18]: 4.45 ± 2.28 µM
Vz [4, 18]: 206 ± 89.8 L/m^2
CL [4, 19]: 11.9 ± 2.78 L/h/m^2
Cmax [4, 19]: 4.68 ± 1.82 µM
Vz [4, 19]: 181 ± 46.0 L/m^2
t1/2 ([4]; Day 8, 80 mg/m^2 paclitaxel IV with onalespib 120 mg/m^2, DL1, median (range)): 15.0 (13.1–15.4) h
AUC(0-inf) ([4]; human, plasma, intravenous, 80 mg/m^2, Mean AUCinf, range across DLs, single agent, cycle 1, day 1, 80 mg/m^2): 5.59 to 7.75 µM·h
Cmax ([4]; human, plasma, intravenous, 80 mg/m^2, Mean Cmax, range across DLs, single agent, cycle 1, day 1, 80 mg/m^2): 3.87 to 4.68 µM
AUC(0-inf) ([4]; human, plasma, intravenous, mean AUCinf, range across all four DLs, cycle 1, day 8, 80 mg/m^2 in combination with onalespib): 6.5 to 8.72 µM·h
Cmax ([4]; human, plasma, intravenous, mean Cmax, range across all four DLs, cycle 1, day 8, 80 mg/m^2 in combination with onalespib): 2.99 to 4.23 µM
AUC(0-inf) ([4]; human, plasma, iv, 80 mg/m2, AUCinf, Day 1 (no onalespib), 80 mg/m^2 paclitaxel IV, DL1, geometric mean ± SD): 7.44 ± 1.54 µM·h
AUC(0-inf) ([4]; human, plasma, iv, 80 mg/m2, AUCinf, Day 1 (no onalespib), 80 mg/m^2 paclitaxel IV, DL3, geometric mean ± SD): 6.1 ± 2.24 µM·h
AUC(0-inf) ([4]; human, plasma, iv, 80 mg/m2, AUCinf, Day 1 (no onalespib), 80 mg/m^2 paclitaxel IV, DL4, geometric mean ± SD): 7.75 ± 1.75 µM·h
half-life ([4]; human, plasma, iv, 80 mg/m2, t1/2, Day 1 (no onalespib), 80 mg/m^2 paclitaxel IV, DL2, median (range)): 9.18 h
half-life ([4]; human, plasma, iv, 80 mg/m2, t1/2, Day 1 (no onalespib), 80 mg/m^2 paclitaxel IV, DL3, median (range)): 9.06 h
half-life ([4]; human, plasma, iv, 80 mg/m2, t1/2, Day 1 (no onalespib), 80 mg/m^2 paclitaxel IV, DL4, median (range)): 10.6 h
AUC(0-inf) ([4]; human, plasma, iv, AUCinf, Day 8, 80 mg/m^2 paclitaxel IV with onalespib 120 mg/m^2, DL1, geometric mean ± SD): 7.97 ± 2.95 µM·h
AUC(0-inf) ([4]; human, plasma, iv, AUCinf, Day 8, 80 mg/m^2 paclitaxel IV with onalespib 200 mg/m^2, DL3, geometric mean ± SD): 6.47 ± 2.18 µM·h
AUC(0-inf) ([4]; human, plasma, iv, AUCinf, Day 8, 80 mg/m^2 paclitaxel IV with onalespib 260 mg/m^2, DL4, geometric mean ± SD): 8.72 ± 2.54 µM·h
Cmax ([4]; human, plasma, iv, Cmax, Day 8, 80 mg/m^2 paclitaxel IV with onalespib 120 mg/m^2, DL1, geometric mean ± SD): 2.99 ± 3.59 µM
Cmax ([4]; human, plasma, iv, Cmax, Day 8, 80 mg/m^2 paclitaxel IV with onalespib 200 mg/m^2, DL3, geometric mean ± SD): 4.23 ± 2.18 µM
half-life ([4]; human, plasma, iv, t1/2, Day 8, 80 mg/m^2 paclitaxel IV with onalespib 200 mg/m^2, DL3, median (range)): 8.67 h
half-life ([4]; human, plasma, iv, t1/2, Day 8, 80 mg/m^2 paclitaxel IV with onalespib 260 mg/m^2, DL4, median (range)): 10.7 h
Structure (SMILES): CC(=O)O[C@H]1C(=O)[C@@]2(C)[C@H]([C@H](OC(=O)c3ccccc3)[C@]3(O)C[C@H](OC(=O)[C@H](O)[C@@H](NC(=O)c4ccccc4)c4ccccc4)C(C)=C1C3(C)C)[C@]1(OC(C)=O)CO[C@@H]1C[C@@H]2O [paclitaxel]
interaction with P-gp [5]: substrate for MDR1 P-gp
